DC50 and Dmax data for 13 compounds are collected here from US12180193B2, “Accelerating fibrosarcoma protein degrading compounds and associated methods of use” (Arvinas Operations, Inc., priority 2020, dated 2024).

In one test the target is T1, BRAF V600E (Homo sapiens, UniProt P15056, V600E).
T1 construct: expressed in transfected cells
In words: Cellular assay of target protein degradation, T-Rex 293 cells stably transfected with HA-BRAF_V600E (HA immunofluorescence, high content imaging). In kind it is cell-based. To be noted: T-Rex 293 HA-BRAF V600E; for DC50: half maximal degradation, read-out: BRaf V600E DC50; for Dmax: maximum degradation observed. Put shortly: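 24 h compound exposure, 1 μM–0.1 nM final, 0.1% DMSO, 37 °C; cells induced with 1 ng/mL doxycycline. PFA fix, Triton permeabilize, anti-HA overnight 4 °C, Hoechst/phalloidin counterstain. Output: DC50, Dmax as % control.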

Another test addresses T2, BRAF G466V (Homo sapiens, UniProt P15056, G466V).
T2 construct: expressed in transfected cells
In words: Cellular assay of target protein degradation, T-Rex 293 cells stably transfected with HA-BRAF G466V (HA immunofluorescence, high content imaging). In kind it is cell-based. Conditions: T-Rex 293 HA-BRAF G466V; for DC50: half maximal degradation, read-out: BRaf G466V DC50; for Dmax: maximum degradation observed. Put shortly:
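24 h compound, 30 nM–3 pM final, 0.1% DMSO, 37° C; HA-BRAF G466V induced with 0.75 ng/mL doxycycline. PFA fix, Triton perm, anti-HA + Alexa fluor secondary, Hoechst/phalloidin counterstain; imaging. DC50, Dmax (% of control).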

Structures are written as SMILES. Bounds are passed on as bounds.

T2 sequence (P15056 whole entry G466V): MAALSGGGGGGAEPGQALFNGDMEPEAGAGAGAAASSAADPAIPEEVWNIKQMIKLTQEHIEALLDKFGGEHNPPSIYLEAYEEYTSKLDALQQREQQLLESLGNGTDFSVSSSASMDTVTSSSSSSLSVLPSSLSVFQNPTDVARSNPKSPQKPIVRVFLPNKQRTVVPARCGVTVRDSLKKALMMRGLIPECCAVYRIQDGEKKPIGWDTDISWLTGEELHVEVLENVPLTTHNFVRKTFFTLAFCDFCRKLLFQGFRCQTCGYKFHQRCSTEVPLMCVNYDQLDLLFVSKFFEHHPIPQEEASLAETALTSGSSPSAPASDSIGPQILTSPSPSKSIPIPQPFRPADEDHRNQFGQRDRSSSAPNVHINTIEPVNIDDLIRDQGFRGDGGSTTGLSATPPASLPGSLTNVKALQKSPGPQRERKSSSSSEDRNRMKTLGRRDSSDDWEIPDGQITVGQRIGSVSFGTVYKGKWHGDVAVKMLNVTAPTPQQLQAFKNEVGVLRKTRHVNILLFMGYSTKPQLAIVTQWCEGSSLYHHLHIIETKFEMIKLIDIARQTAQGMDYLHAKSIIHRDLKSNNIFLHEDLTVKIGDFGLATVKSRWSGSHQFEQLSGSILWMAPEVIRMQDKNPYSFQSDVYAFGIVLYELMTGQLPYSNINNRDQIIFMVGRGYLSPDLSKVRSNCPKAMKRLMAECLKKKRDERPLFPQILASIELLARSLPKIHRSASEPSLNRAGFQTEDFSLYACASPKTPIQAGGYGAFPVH
T1 sequence (P15056 whole entry V600E): as the sequence (P15056 whole entry G466V) above, with V466G, V600E counted along it

By DC50 is commonly meant the midpoint of the concentration-degradation curve. One may read the Dmax as the greatest extent of degradation seen. The low end stands for a partial loss of target, the high end for a fuller loss of target. For `O=C1CC[C@H](N2Cc3cc(C4CCN(CC5CCN(c6ccc(-c7cnc8[nH]cc(C(=O)c9c(Cl)ccc(NS(=O)(=O)N%10CC[C@@H](F)C%10)c9Cl)c8c7)cc6)CC5)CC4)ccc3C2=O)C(=O)N1` [Compound 267, (3R)-N-{2,4-dichloro-3-[5-(4-{4-[(4-{2-[(3S)-2,6-dioxopiperidin-3-yl]-1-oxo-2,3-dihydro-1H-isoindol-5-yl}piperidin-1-yl)methyl]piperidin-1-yl}phenyl)-1H-pyrrolo [2,3-b]pyridine-3-carbonyl]phenyl}-3-fluoropyrrolidine-1-sulfonamide], at BRAF V600E, the DC50 was in the range of 5 to 50 nM and the Dmax was in the range of 35 to 70%. For the same compound, at BRAF G466V, the DC50 fell in the range of 1 to 10 nM and the Dmax fell in the range of 35 to 70%.

`O=C1CCC(N2Cc3cc(C4CCN(CC5CCN(c6ccc(-c7cnc8[nH]cc(C(=O)c9c(Cl)ccc(NS(=O)(=O)N%10CC[C@@H](F)C%10)c9Cl)c8c7)cc6)CC5)CC4)ccc3C2=O)C(=O)N1` (stereo partly drawn) [Compound 268, (3R)-N-[2,4-dichloro-3-(5-{4-[4-({4-[2-(2,6-dioxopiperidin-3-yl)-1-oxo-2,3-dihydro-1H-isoindol-5-yl]piperidin-1-yl}methyl)piperidin-1-yl]phenyl}-1H-pyrrolo [2,3-b]pyridine-3-carbonyl)phenyl]-3-fluoropyrrolidine-1-sulfonamide]: the half-maximal degradation concentration (DC50) was in the range of 50 to 500 nM on BRAF V600E and 1 to 10 nM at BRAF G466V. Moreover, the Dmax on BRAF V600E was 35 to 70%; at BRAF G466V, < 35%.

Take `COc1ccc(NS(=O)(=O)N2CC[C@@H](F)C2)c(F)c1C(=O)c1c[nH]c2ncc(-c3ccc(N4CCC(CN5CCC(c6ccc7c(c6)CN(C6CCC(=O)NC6=O)C7=O)CC5)CC4)cc3)cc12` (stereo partly drawn) [Compound 269, (3R)-N-[3-(5-{4-[4-({4-[2-(2,6-dioxopiperidin-3-yl)-1-oxo-2,3-dihydro-1H-isoindol-5-yl]piperidin-1-yl}methyl)piperidin-1-yl]phenyl}-1H-pyrrolo[2,3-b]pyridine-3-carbonyl)-2-fluoro-4-methoxyphenyl]-3-fluoropyrrolidine-1-sulfonamide]: at BRAF V600E, the 50% degradation concentration (DC50) fell in the range of 5 to 50 nM and the Dmax fell in the range of 35 to 70%. Moreover, on BRAF G466V, the DC50 was 1 to 10 nM and the Dmax is 35 to 70%.

For `C[C@H]1[C@H](F)CCN1S(=O)(=O)Nc1ccc(F)c(C(=O)c2c[nH]c3ncc(-c4ccc(N5CCC(CN6CCC(c7ccc8c(c7)CN([C@H]7CCC(=O)NC7=O)C8=O)CC6)CC5)cc4)cc23)c1F` [Compound 270, (2S,3R)-N-{3-[5-(4-{4-[(4-{2-[(3S)-2,6-dioxopiperidin-3-yl]-1-oxo-2,3-dihydro-1H-isoindol-5-yl}piperidin-1-yl)methyl]piperidin-1-yl}phenyl)-1H-pyrrolo [2,3-b]pyridine-3-carbonyl]-2,4-difluorophenyl}-3-fluoro-2-methylpyrrolidine-1-sulfonamide], the DC50 lay within 5 to 50 nM at BRAF V600E and 1 to 10 nM at BRAF G466V. Moreover, the Dmax on BRAF V600E was 35 to 70%; on BRAF G466V, > 70%.

Take `C[C@H]1[C@H](F)CCN1S(=O)(=O)Nc1ccc(F)c(C(=O)c2c[nH]c3ncc(-c4ccc(N5CCC(CN6CCC(c7ccc8c(c7)CN(C7CCC(=O)NC7=O)C8=O)CC6)CC5)cc4)cc23)c1F` (stereo partly drawn) [Compound 271, (2S,3R)-N-[3-(5-{4-[4-({4-[2-(2,6-dioxopiperidin-3-yl)-1-oxo-2,3-dihydro-1H-isoindol-5-yl]piperidin-1-yl}methyl)piperidin-1-yl]phenyl}-1H-pyrrolo[2,3-b]pyridine-3-carbonyl)-2,4-difluorophenyl]-3-fluoro-2-methylpyrrolidine-1-sulfonamide]: on BRAF V600E, the DC50 was in the range of 5 to 50 nM and the maximal degradation (Dmax) lay in the range of 35 to 70%. Also, on BRAF G466V, the DC50 lay in the range of 1 to 10 nM and the Dmax is > 70%.

With `O=C1CC[C@H](N2Cc3cc(C4CCN(CC5CCN(c6ccc(-c7cnc8[nH]cc(C(=O)c9c(F)ccc(NS(=O)(=O)N%10CC[C@@H](F)C%10)c9C(F)(F)F)c8c7)cc6)CC5)CC4)ccc3C2=O)C(=O)N1` [Compound 272, (3R)-N-{3-[5-(4-{4-[(4-{2-[(3S)-2,6-dioxopiperidin-3-yl]-1-oxo-2,3-dihydro-1H-isoindol-5-yl}piperidin-1-yl)methyl]piperidin-1-yl}phenyl)-1H-pyrrolo [2,3-b]pyridine-3-carbonyl]-4-fluoro-2-(trifluoromethyl)phenyl}-3-fluoropyrrolidine-1-sulfonamide], the figures for the DC50 on BRAF V600E and at BRAF G466V were 50 to 500 nM and 1 to 10 nM, respectively. Besides, the greatest degradation seen (Dmax) on BRAF V600E and at BRAF G466V was 35 to 70% throughout.

In the case of `O=C1CCC(N2Cc3cc(C4CCN(CC5CCN(c6ccc(-c7cnc8[nH]cc(C(=O)c9c(F)ccc(NS(=O)(=O)N%10CC[C@@H](F)C%10)c9C(F)(F)F)c8c7)cc6)CC5)CC4)ccc3C2=O)C(=O)N1` (stereo partly drawn) [Compound 273, (3R)-N-[3-(5-{4-[4-({4-[2-(2,6-dioxopiperidin-3-yl)-1-oxo-2,3-dihydro-1H-isoindol-5-yl]piperidin-1-yl}methyl)piperidin-1-yl]phenyl}-1H-pyrrolo[2,3-b]pyridine-3-carbonyl)-4-fluoro-2-(trifluoromethyl)phenyl]-3-fluoropyrrolidine-1-sulfonamide], on BRAF V600E, the DC50 was > 500 nM and the Dmax fell in the range of 35 to 70%. At BRAF G466V, the DC50 fell in the range of 10 to 30 nM and the greatest degradation seen (Dmax) lay within 35 to 70%.

Take `COc1ccc(NS(=O)(=O)N2CC[C@@H](F)C2)c(OC)c1C(=O)c1c[nH]c2ncc(-c3ccc(N4CCC(CN5CCC(c6ccc7c(c6)CN([C@H]6CCC(=O)NC6=O)C7=O)CC5)CC4)cc3)cc12` [Compound 274, (3R)-N-{3-[5-(4-{4-[(4-{2-[(3S)-2,6-dioxopiperidin-3-yl]-1-oxo-2,3-dihydro-1H-isoindol-5-yl}piperidin-1-yl)methyl]piperidin-1-yl}phenyl)-1H-pyrrolo [2,3-b]pyridine-3-carbonyl]-2,4-dimethoxyphenyl}-3-fluoropyrrolidine-1-sulfonamide]: the results for the DC50 at BRAF V600E and at BRAF G466V were > 500 nM and > 30 nM, respectively.

On to `COc1ccc(NS(=O)(=O)N2CC[C@@H](F)C2)c(OC)c1C(=O)c1c[nH]c2ncc(-c3ccc(N4CCC(CN5CCC(c6ccc7c(c6)CN(C6CCC(=O)NC6=O)C7=O)CC5)CC4)cc3)cc12` (stereo partly drawn) [Compound 275, (3R)-N-[3-(5-{4-[4-({4-[2-(2,6-dioxopiperidin-3-yl)-1-oxo-2,3-dihydro-1H-isoindol-5-yl]piperidin-1-yl}methyl)piperidin-1-yl]phenyl}-1H-pyrrolo[2,3-b]pyridine-3-carbonyl)-2,4-dimethoxyphenyl]-3-fluoropyrrolidine-1-sulfonamide], for which the DC50 on BRAF V600E is > 500 nM; at BRAF G466V, > 30 nM.

For the compound `CCc1c(NS(=O)(=O)N2CC[C@@H](F)C2)ccc(F)c1C(=O)c1c[nH]c2ncc(-c3ccc(N4CCC(CN5CCC(c6ccc7c(c6)CN(C6CCC(=O)NC6=O)C7=O)CC5)CC4)cc3)cc12` (stereo partly drawn) [Compound 276, (3R)-N-[3-(5-{4-[4-({4-[2-(2,6-dioxopiperidin-3-yl)-1-oxo-2,3-dihydro-1H-isoindol-5-yl]piperidin-1-yl}methyl)piperidin-1-yl]phenyl}-1H-pyrrolo[2,3-b]pyridine-3-carbonyl)-2-ethyl-4-fluorophenyl]-3-fluoropyrrolidine-1-sulfonamide], at BRAF V600E, the DC50 is < 5 nM and the Dmax was in the range of 35 to 70%. Moreover, on BRAF G466V, the DC50 was < 1 nM and the greatest degradation seen (Dmax) lay in the range of 35 to 70%.

In the case of `C[C@@H]1CC[C@@H](C)N1S(=O)(=O)Nc1ccc(F)c(C(=O)c2c[nH]c3ncc(-c4ccc(N5CCC(CN6CCC(c7ccc8c(c7)CN([C@H]7CCC(=O)NC7=O)C8=O)CC6)CC5)cc4)cc23)c1F` [Compound 277, (2R,5R)-N-{3-[5-(4-{4-[(4-{2-[(3S)-2,6-dioxopiperidin-3-yl]-1-oxo-2,3-dihydro-1H-isoindol-5-yl}piperidin-1-yl)methyl]piperidin-1-yl}phenyl)-1H-pyrrolo [2,3-b]pyridine-3-carbonyl]-2,4-difluorophenyl}-2,5-dimethylpyrrolidine-1-sulfonamide], on BRAF V600E, the half-maximal degradation concentration (DC50) lay within 5 to 50 nM and the Dmax was < 35%. Besides, at BRAF G466V, the DC50 was in the range of 10 to 30 nM and the Dmax was > 70%.

`O=C1CC[C@H](N2Cc3cc(C4CCN(CC5CCN(c6ccc(-c7cnc8[nH]cc(C(=O)c9c(F)ccc(NS(=O)(=O)N%10CC[C@@H](O)C%10)c9F)c8c7)cc6)CC5)CC4)ccc3C2=O)C(=O)N1` [Compound 278, (3R)-N-{3-[5-(4-{4-[(4-{2-[(3S)-2,6-dioxopiperidin-3-yl]-1-oxo-2,3-dihydro-1H-isoindol-5-yl}piperidin-1-yl)methyl]piperidin-1-yl}phenyl)-1H-pyrrolo [2,3-b]pyridine-3-carbonyl]-2,4-difluorophenyl}-3-hydroxypyrrolidine-1-sulfonamide]: on BRAF V600E, the DC50 lay within 5 to 50 nM and the Dmax lay in the range of 35 to 70%. In addition, at BRAF G466V, the DC50 was in the range of 1 to 10 nM and the greatest degradation seen (Dmax) is 35 to 70%.

`O=C1CC[C@H](N2Cc3cc(C4CCN(CC5CCN(c6ccc(-c7cnc8[nH]cc(C(=O)c9c(F)ccc(NS(=O)(=O)N%10CC(O)C%10)c9F)c8c7)cc6)CC5)CC4)ccc3C2=O)C(=O)N1` [Compound 279, N-{3-[5-(4-{4-[(4-{2-[(3S)-2,6-dioxopiperidin-3-yl]-1-oxo-2,3-dihydro-1H-isoindol-5-yl}piperidin-1-yl)methyl]piperidin-1-yl}phenyl)-1H-pyrrolo[2,3-b]pyridine-3-carbonyl]-2,4-difluorophenyl}-3-hydroxyazetidine-1-sulfonamide]: on BRAF V600E, the DC50 is 5 to 50 nM and the Dmax is < 35%. Also, on BRAF G466V, the DC50 was in the range of 10 to 30 nM and the Dmax was > 70%.
